Common to all, as to test: DTP human tumour cell line panel, 48 h
The test system of assay [1] is A498.
The subject of assay [2] is ACHN.
Assay [3] deals with CAKI-1.
For assay [4], the system named is DU-145.
Assay [5] relates to HL-60.
In assay [6] the test system is IGROV-1.
The subject of assay [7] is MCF7.
In assay [8] the test system is MDA-MB-231.
The subject of assay [9] is MDA-N.
The subject of assay [10] is Malme-3M.
For assay [11], the system named is NCI-H23.
Assay [12] deals with NCI-H460.
Assay [13] has as its system NCI/ADR-RES.
The subject of assay [14] is OVCAR-3.
Assay [15] relates to OVCAR-8.
The subject of assay [16] is PC-3.
The test system of assay [17] is SK-OV-3.
Assay [18] deals with SN12C.
The subject of assay [19] is U-251.
For assay [20], the system named is UACC-257.

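1) Cells in 96-well plates. 2) Compound, 48 h, 5 concentrations. 3) Linear interpolation between surrounding doses. 4) Unreached endpoint = highest concentration. At the GI50, growth is halved.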 Active and inactive are the calls of the source. Cut-off read from the data, not from the text of the source: active = GI50 up to about 1.1 µM and inactive = higher.

Usually GI50 stands for the concentration at which growth is held to half of that of the control.

As to `NC(=O)C(c1ccccc1)N1OC2C(=O)N(Cc3ccccc3)C(=O)C2C1c1cccc(Oc2ccc(Cl)cc2)c1` (stereo not given), the GI50 in assay [1] was 52.1 µM (inactive); in assay [2], 20.4 µM (inactive); in assay [3], 14.9 µM (inactive); in assay [4], 33.1 µM (inactive); in assay [5], 23.4 µM (inactive); in assay [6], 36.5 µM (inactive). Besides, the GI50 was 28 µM (inactive) in [7]; 37.1 µM (inactive) in assay [8]; 20.7 µM (inactive) in assay [9]; 42.9 µM (inactive) in assay [10]; 36.2 µM (inactive) in assay [11]; 28.8 µM (inactive) in assay [12]. The GI50 in [13] is 34 µM (inactive); in assay [14] it was 19.9 µM (inactive); in assay [15] it was 39.7 µM (inactive); in assay [16], 33.4 µM (inactive); in assay [17], 60.7 µM (inactive); in assay [18] it was 16.4 µM (inactive). The GI50 is 28.2 µM (inactive) in [19] and 36.6 µM (inactive) in [20].

Regarding `Cc1c(-c2ccccc2)c(C#N)c2nnn(C3CCCCC3)c(=O)n12`, the GI50 in assay [1] was 65.8 µM (inactive); in assay [2], 50.5 µM (inactive); in assay [3] it was 0.425 µM (active); in assay [4] it was > 100 µM (inactive); in [5] it was > 100 µM (inactive); in assay [6], 60.4 µM (inactive). Moreover, the GI50 in assay [7] is > 100 µM (inactive); in assay [8], 21.6 µM (inactive); in assay [9] it was > 100 µM (inactive); in assay [10] it was > 100 µM (inactive); in assay [11], > 100 µM (inactive); in assay [12], > 100 µM (inactive). Also, the GI50 in assay [13] was > 100 µM (inactive); in [14] it was > 100 µM (inactive); in assay [15], 44 µM (inactive); in assay [16], 20.2 µM (inactive); in assay [17], 60.3 µM (inactive); in assay [18], 98.2 µM (inactive). Further, the GI50 in assay [19] is 53.2 µM (inactive); in assay [20], > 100 µM (inactive).

On to `O=C1c2ccccc2C(=O)c2c(/C=C\N3CCCCC3)ccnc21`, for which the GI50 is 8.99 µM (inactive) in assay [1]; 5.69 µM (inactive) in [2]; 16.9 µM (inactive) in assay [3]; 1.44 µM (inactive) in assay [4]; 3.01 µM (inactive) in assay [5]; 11.1 µM (inactive) in [6]. The GI50 in assay [7] was 0.869 µM (active); in [8] it was 19.1 µM (inactive); in [9], 0.383 µM (active); in assay [10], 0.661 µM (active); in assay [11] it was 0.644 µM (active); in assay [12], 1.3 µM (inactive). The GI50 in [13] is 3.6 µM (inactive); in [14], 1.75 µM (inactive); in [15], 2.15 µM (inactive); in assay [16] it was 0.879 µM (active); in assay [17], 15.7 µM (inactive); in assay [18] it was 1.4 µM (inactive). The GI50 in [19] is 2.99 µM (inactive); in assay [20], 1.02 µM (active).

Regarding `COc1ccc(/C(=N/N=c2[nH]c3ccccc3[nH]2)C(=O)O)cc1`, the GI50 in assay [1], in assay [2], in [3], in assay [4], in assay [5] and in assay [6] was > 100 µM (inactive) each time. For the same compound, the GI50 in assay [7], in [8], in assay [9], in [10], in [11] and in [12] was > 100 µM (inactive) each time. Also, the GI50 in [13], in assay [14], in [15], in [16], in assay [17] and in [18] was > 100 µM (inactive) each time. Further, the GI50 in assay [19] and in assay [20] was > 100 µM (inactive) throughout.

Take `COc1ccc(Br)c(/C=N\c2cccc3cc(OC)c(OC)cc23)c1`: the GI50 was > 78.5 µM (inactive) in [1]; 25.5 µM (inactive) in [2]; > 82.4 µM (inactive) in assay [3]; 52.1 µM (inactive) in assay [4]; 0.865 µM (active) in assay [5]; 25.8 µM (inactive) in assay [6]. Moreover, the GI50 was 2.33 µM (inactive) in assay [7]; 15.5 µM (inactive) in assay [8]; 3.44 µM (inactive) in assay [9]; 34 µM (inactive) in assay [10]; 32.8 µM (inactive) in [11]; 35.5 µM (inactive) in assay [12]. For the same compound, the GI50 was 16.8 µM (inactive) in [13]; 9.12 µM (inactive) in assay [14]; 6.28 µM (inactive) in assay [15]; 11.1 µM (inactive) in assay [16]; 55.1 µM (inactive) in assay [17]; 12.8 µM (inactive) in assay [18]. Also, the GI50 was 2.99 µM (inactive) in [19] and 69.8 µM (inactive) in assay [20].

Consider `COc1ccc(/N=C2\C(=O)C3=C(OC(C)(C)CC3)c3ccccc32)cc1`, for which the GI50 is 7.91 µM (inactive) in assay [1]; 0.845 µM (active) in assay [2]; 0.991 µM (active) in assay [3]; 0.871 µM (active) in assay [4]; 0.592 µM (active) in [5]; 1.36 µM (inactive) in [6]. The GI50 in assay [7] was 0.9 µM (active); in assay [8], 1.41 µM (inactive); in assay [9], 0.492 µM (active); in assay [10] it was 0.791 µM (active); in assay [11] it was 1.31 µM (inactive); in assay [12], 1.5 µM (inactive). In addition, the GI50 in [13] is 0.802 µM (active); in [14] it was 0.361 µM (active); in assay [15], 0.43 µM (active); in assay [16], 1.29 µM (inactive); in assay [17], 1.53 µM (inactive); in [18], 0.889 µM (active). For the same compound, the values for the GI50 in assay [19] and in [20] were 0.841 µM (active) and 0.968 µM (active), respectively.

On to `NCC(=O)Nc1ccc(Cl)cc1C(=O)c1ccc[nH]1`, for which the GI50 in assay [1] is > 63.1 µM (inactive); in assay [2], > 74 µM (inactive); in assay [3] it was 78 µM (inactive); in assay [4], > 100 µM (inactive); in [5] it was 15.1 µM (inactive); in assay [6], > 48.4 µM (inactive). The GI50 in assay [7] is 6.31 µM (inactive); in assay [8], > 51.1 µM (inactive); in assay [9], 23.4 µM (inactive); in assay [10] it was > 56.4 µM (inactive); in [11] it was 14.3 µM (inactive); in assay [12], 10.4 µM (inactive). Besides, the GI50 in assay [13] is 49 µM (inactive); in assay [14] it was 40.9 µM (inactive); in assay [15] it was > 56.8 µM (inactive); in assay [16], 25.9 µM (inactive); in assay [17], > 100 µM (inactive); in assay [18] it was > 36.3 µM (inactive). The GI50 was 15.2 µM (inactive) in [19] and > 100 µM (inactive) in assay [20].

With `COC(=O)C1(C)C=CC(=O)C2(C)C1C(O)C1OC3CC(c4ccoc4)C(C)=C3C1(C)C2CC(=O)O` (stereo not given), the GI50 in assay [1], in [2], in assay [3], in assay [4], in assay [5] and in assay [6] was > 100 µM (inactive) each time. The GI50 in assay [7], in assay [8], in assay [9], in [10], in assay [11] and in assay [12] was > 100 µM (inactive) in each case. Moreover, the GI50 in assay [13], in [14], in assay [15], in [16], in assay [17] and in assay [18] was > 100 µM (inactive) in each case. Also, the GI50 in [19] and in [20] was > 100 µM (inactive) throughout.

As to `O=C(O)CSc1ccccc1C(=O)O`, the GI50 in assay [1] was > 100 µM (inactive); in [2] it was > 100 µM (inactive); in [3] it was > 100 µM (inactive); in assay [4], > 100 µM (inactive); in assay [5] it was 6.03 µM (inactive); in assay [6], > 100 µM (inactive). The GI50 is > 100 µM (inactive) in [7]; > 100 µM (inactive) in assay [8]; > 100 µM (inactive) in assay [9]; > 100 µM (inactive) in [10]; > 100 µM (inactive) in assay [11]; 20.7 µM (inactive) in [12]. Also, the GI50 in [13], in assay [14], in assay [15], in assay [16], in assay [17] and in assay [18] was > 100 µM (inactive) throughout. The results for the GI50 in [19] and in [20] were > 100 µM (inactive) and 15 µM (inactive), respectively.

As for `Cc1nc2c(N3CCCC3)nc(N3CCNCC3)nc2nc1NCc1ccccc1`, the GI50 in [1] is 4.79 µM (inactive); in [2] it was 5.12 µM (inactive); in assay [3] it was 3.01 µM (inactive); in assay [4], 6.52 µM (inactive); in assay [5] it was 3.61 µM (inactive); in assay [6] it was 3.95 µM (inactive). Further, the GI50 was 2.33 µM (inactive) in assay [7]; 2.95 µM (inactive) in [8]; 1.61 µM (inactive) in [9]; 2.04 µM (inactive) in assay [10]; 8.85 µM (inactive) in assay [11]; 3.56 µM (inactive) in [12]. For the same compound, the GI50 in assay [13] is 13 µM (inactive); in [14], 2.43 µM (inactive); in assay [15], 3.37 µM (inactive); in assay [16], 5.05 µM (inactive); in assay [17] it was 7.69 µM (inactive); in [18], 7.29 µM (inactive). In addition, the GI50 was 3.2 µM (inactive) in assay [19] and 1.94 µM (inactive) in [20].

Values taken from ChEMBL document CHEMBL1201862, “PubChem BioAssay data set” (2004).
